# Where “and” joins values, the source holds several entries; their conditions need not be identical. Identical values can stand only once. Toxic doses and inconclusive results are not listed.
# Tested on: L1210 leukemia ip in BDF1 mice, survival T/C
# Test: NCI In Vivo Anticancer Drug Screen. Data for tumor model L1210 Leukemia (intraperitoneal) in B6D2F1 (BDF1) mice
# Conditions: endpoint: mean survival time, higher = longer survival
# Outline: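 Transplantable tumor model; survival measured in treated vs vehicle control mice. Value = treated/control.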
# [1] = dose: 100.0 mg/kg/injection, schedule: Q01DX009 (ip), vehicle: saline with Tween-80
# [2] = dose: 100.0 mg/kg/injection, schedule: Q04DX003 (ip), vehicle: saline with Tween-80
# [3] = dose: 200.0 mg/kg/injection, schedule: Q01DX009 (ip), vehicle: saline with Tween-80
# [4] = dose: 200.0 mg/kg/injection, schedule: Q04DX003 (ip), vehicle: saline with Tween-80
# [5] = dose: 400.0 mg/kg/injection, schedule: Q01DX009 (ip), vehicle: saline with Tween-80
# [6] = dose: 400.0 mg/kg/injection, schedule: Q04DX003 (ip), vehicle: saline with Tween-80
# [7] = dose: 100.0 mg/kg/injection, schedule: Q01DX001 (ip), vehicle: saline
# [8] = dose: 200.0 mg/kg/injection, schedule: Q01DX001 (ip), vehicle: saline
# [9] = dose: 400.0 mg/kg/injection, schedule: Q01DX001 (ip), vehicle: saline
# [10] = dose: 100.0 mg/kg/injection, schedule: Q04DX002 (ip), vehicle: saline
# [11] = dose: 400.0 mg/kg/injection, schedule: Q04DX002 (ip), vehicle: saline
# [12] = dose: 50.0 mg/kg/injection, schedule: Q01DX009 (ip), vehicle: Klucel (hydroxypropylcellulose) (HPC)
# [13] = dose: 100.0 mg/kg/injection, schedule: Q01DX009 (ip), vehicle: Klucel (hydroxypropylcellulose) (HPC)
# [14] = dose: 50.0 mg/kg/injection, schedule: Q01DX001 (ip), vehicle: saline
# [15] = dose: 50.0 mg/kg/injection, schedule: Q01DX009 (ip), vehicle: saline
# [16] = dose: 100.0 mg/kg/injection, schedule: Q04DX002 (ip), vehicle: Klucel (hydroxypropylcellulose) (HPC)
# [17] = dose: 200.0 mg/kg/injection, schedule: Q04DX002 (ip), vehicle: Klucel (hydroxypropylcellulose) (HPC)
# [18] = dose: 400.0 mg/kg/injection, schedule: Q04DX002 (ip), vehicle: Klucel (hydroxypropylcellulose) (HPC)
smiles,measurement,setting,value
S=c1c2ccccc2oc2ccccc12,T/C,"dose: 50.0 mg/kg/injection, schedule: Q04DX002 (ip), vehicle: saline with Tween-80",93 % of control
same,T/C,"dose: 100.0 mg/kg/injection, schedule: Q04DX002 (ip), vehicle: saline with Tween-80",93 % of control
same,T/C,"dose: 200.0 mg/kg/injection, schedule: Q04DX002 (ip), vehicle: saline with Tween-80",87 % of control
same,T/C,"dose: 400.0 mg/kg/injection, schedule: Q04DX002 (ip), vehicle: saline with Tween-80",97 % of control
Cc1ccccc1OCCCCCl,T/C,[1],95 % of control
same,T/C,[2],97 % of control
same,T/C,[3],88 % of control
same,T/C,[4],92 % of control
same,T/C,[5],89 % of control
same,T/C,[6],100 % of control
O=C1CSC(=NCCN=C2NC(=O)CS2)N1,T/C,[7],104 % of control
same,T/C,[8],111 % of control
same,T/C,[9],102 % of control
CC1(C)OC2COC(OCc3ccccc3)C(OCc3ccccc3)C2O1 (centres undefined),T/C,[2],97 % of control
same,T/C,[4],103 % of control
same,T/C,[6],97 % of control
O=C1CCOP(=O)(NCCCl)N1CCCl (centres undefined),T/C,[10],115 % of control
same,T/C,[11],175 % of control
Nc1nc(N)c2nc(CO)cnc2n1,T/C,"dose: 12.5 mg/kg/injection, schedule: Q01DX009 (ip), vehicle: Klucel (hydroxypropylcellulose) (HPC)",98 % of control
same,T/C,"dose: 25.0 mg/kg/injection, schedule: Q01DX009 (ip), vehicle: Klucel (hydroxypropylcellulose) (HPC)",102 % of control
same,T/C,[12],101 % of control and 105 % of control
same,T/C,[13],101 % of control
CCOC(=O)c1[nH]cnc1/N=N/N(C)CCO,T/C,[12],122 % of control
same,T/C,"dose: 90.0 mg/kg/injection, schedule: Q01DX009 (ip), vehicle: Klucel (hydroxypropylcellulose) (HPC)",116 % of control
same,T/C,"dose: 100.0 mg/kg/injection, schedule: Q01DX001 (ip), vehicle: carboxymethylcellulose (CMC)",115 % of control
same,T/C,[13],117 % of control
same,T/C,"dose: 100.0 mg/kg/injection, schedule: Q04DX003 (ip), vehicle: Klucel (hydroxypropylcellulose) (HPC)",109 % of control and 115 % of control
same,T/C,"dose: 175.0 mg/kg/injection, schedule: Q01DX009 (ip), vehicle: saline",152 % of control
same,T/C,"dose: 200.0 mg/kg/injection, schedule: Q01DX001 (ip), vehicle: carboxymethylcellulose (CMC)",102 % of control
same,T/C,"dose: 200.0 mg/kg/injection, schedule: Q04DX003 (ip), vehicle: Klucel (hydroxypropylcellulose) (HPC)",108 % of control and 121 % of control
same,T/C,"dose: 400.0 mg/kg/injection, schedule: Q01DX001 (ip), vehicle: carboxymethylcellulose (CMC)",107 % of control
same,T/C,"dose: 400.0 mg/kg/injection, schedule: Q01DX009 (ip), vehicle: Klucel (hydroxypropylcellulose) (HPC)",150 % of control and 154 % of control
same,T/C,"dose: 400.0 mg/kg/injection, schedule: Q04DX003 (ip), vehicle: Klucel (hydroxypropylcellulose) (HPC)",124 % of control
same,T/C,"dose: 600.0 mg/kg/injection, schedule: Q01DX009 (ip), vehicle: saline",154 % of control
C[C@]12CC[C@H]3[C@@H](CC[C@]4(O)C[C@@H](O)CC[C@]34CO)[C@@]1(O)CC[C@@H]2C1=CC(=O)OC1,T/C,[14],106 % of control
same,T/C,[7],100 % of control
same,T/C,[8],100 % of control
COC(=O)Cn1nnc2ccccc21,T/C,[15],97 % of control
same,T/C,"dose: 100.0 mg/kg/injection, schedule: Q01DX009 (ip), vehicle: saline",105 % of control
same,T/C,"dose: 200.0 mg/kg/injection, schedule: Q01DX009 (ip), vehicle: saline",87 % of control
Cc1ccc(C)c(/C(=N\N=C(N)N)C2CC2)c1,T/C,"dose: 15.0 mg/kg/injection, schedule: Q01DX Z (ip), vehicle: methylcellulose (MC)",103 % of control
same,T/C,"dose: 30.0 mg/kg/injection, schedule: Q01DX Z (ip), vehicle: methylcellulose (MC)",99 % of control
same,T/C,"dose: 30.0 mg/kg/injection, schedule: Q01DX Z (oral), vehicle: methylcellulose (MC)",103 % of control
same,T/C,"dose: 60.0 mg/kg/injection, schedule: Q01DX Z (ip), vehicle: methylcellulose (MC)",100 % of control
same,T/C,"dose: 60.0 mg/kg/injection, schedule: Q01DX Z (oral), vehicle: methylcellulose (MC)",94 % of control
same,T/C,"dose: 120.0 mg/kg/injection, schedule: Q01DX Z (oral), vehicle: methylcellulose (MC)",100 % of control
NC(CCSCc1ccccc1)C(=O)O (centres undefined),T/C,"dose: 12.5 mg/kg/injection, schedule: Q04DX002 (ip), vehicle: Klucel (hydroxypropylcellulose) (HPC)",107 % of control
same,T/C,"dose: 25.0 mg/kg/injection, schedule: Q04DX002 (ip), vehicle: Klucel (hydroxypropylcellulose) (HPC)",97 % of control
same,T/C,"dose: 50.0 mg/kg/injection, schedule: Q04DX002 (ip), vehicle: Klucel (hydroxypropylcellulose) (HPC)",97 % of control
same,T/C,[16],113 % of control
same,T/C,[17],98 % of control
same,T/C,[18],98 % of control
O=C(CCCC(=O)NNC(=O)Nc1ccc(Cl)cc1)NNC(=O)Nc1ccc(Cl)cc1,T/C,[14],93 % of control
same,T/C,[7],96 % of control
same,T/C,[8],100 % of control
same,T/C,[9],100 % of control
CCCCOCCC1CCNCC1,T/C,"dose: 12.5 mg/kg/injection, schedule: Q01DX009 (ip), vehicle: saline",97 % of control
same,T/C,"dose: 12.5 mg/kg/injection, schedule: Q04DX003 (ip), vehicle: saline",96 % of control
same,T/C,"dose: 25.0 mg/kg/injection, schedule: Q01DX009 (ip), vehicle: saline",101 % of control
same,T/C,"dose: 25.0 mg/kg/injection, schedule: Q04DX003 (ip), vehicle: saline",97 % of control
same,T/C,[15],101 % of control
same,T/C,"dose: 50.0 mg/kg/injection, schedule: Q04DX003 (ip), vehicle: saline",100 % of control
Nc1nc(=S)c2ncn(C3OC(COC(=O)c4ccc(Cl)cc4)C(OC(=O)c4ccc(Cl)cc4)C3OC(=O)c3ccc(Cl)cc3)c2[nH]1 (centres undefined),T/C,"dose: 3.5 mg/kg/injection, schedule: Q01DX Z (ip), vehicle: carboxymethylcellulose (CMC)",113 % of control
same,T/C,"dose: 12.0 mg/kg/injection, schedule: Q01DX Z (ip), vehicle: carboxymethylcellulose (CMC)",156 % of control
same,T/C,"dose: 12.0 mg/kg/injection, schedule: Q01DX Z (ip), vehicle: saline",170 % of control
same,T/C,"dose: 19.0 mg/kg/injection, schedule: Q01DX Z (ip), vehicle: carboxymethylcellulose (CMC)",115 % of control
same,T/C,"dose: 44.0 mg/kg/injection, schedule: Q01DX Z (ip), vehicle: carboxymethylcellulose (CMC)",150 % of control
same,T/C,"dose: 50.0 mg/kg/injection, schedule: Q01DX Z (ip), vehicle: saline",114 % of control
same,T/C,"dose: 150.0 mg/kg/injection, schedule: Q01DX Z (ip), vehicle: carboxymethylcellulose (CMC)",108 % of control
CCOC(=O)CNc1cccc(C)c1C,T/C,[16],100 % of control
same,T/C,[17],102 % of control
same,T/C,[18],100 % of control
O=C(Nc1ccccc1)Nc1ccccn1,T/C,"dose: 12.5 mg/kg/injection, schedule: Q04DX003 (ip), vehicle: saline with Tween-80",95 % of control
same,T/C,"dose: 25.0 mg/kg/injection, schedule: Q04DX003 (ip), vehicle: saline with Tween-80",95 % of control
CCCOCCOCCOC(C)Oc1ccccc1OC (centres undefined),T/C,[10],92 % of control
same,T/C,"dose: 200.0 mg/kg/injection, schedule: Q04DX002 (ip), vehicle: saline",88 % of control
same,T/C,[11],95 % of control
C=CC(COC(C)=O)N1CC1 (centres undefined) (tested in a mixture with another compound),T/C,"dose: 30.0 mg/kg/injection, schedule: Q04DX003 (ip), vehicle: saline",166 % of control
same,T/C,"dose: 60.0 mg/kg/injection, schedule: Q04DX003 (ip), vehicle: saline",107 % of control
CC1(C)N=C(N)N=C(N)N1c1ccc(CCCC(=O)Nc2cccc(S(=O)(=O)F)c2)cc1,T/C,[7],105 % of control and 89 % of control
same,T/C,[8],103 % of control
CC(C)(c1ccc(OCCO)cc1)c1ccc(OCCO)cc1,T/C,[1],97 % of control
same,T/C,[3],98 % of control
same,T/C,[5],93 % of control
Cc1c2c(cc3c1OCN(C)C3)CN(C)CO2,T/C,[14],104 % of control
same,T/C,[7],101 % of control
same,T/C,[8],107 % of control
COc1ccc(OC)c2c(=O)cc(C)[nH]c12,T/C,[7],100 % of control
same,T/C,[8],92 % of control
same,T/C,[9],102 % of control
NCCC1CNCCN1.[Cl][Pd]([Cl])([Cl])[Cl] (centres undefined),T/C,"dose: 12.5 mg/kg/injection, schedule: Q01DX001 (ip), vehicle: saline",108 % of control
same,T/C,"dose: 25.0 mg/kg/injection, schedule: Q01DX001 (ip), vehicle: saline",108 % of control
same,T/C,[14],103 % of control
same,T/C,"dose: 100.0 mg/kg/injection, schedule: Q01DX001 (ip), vehicle: DMSO",98 % of control
